Experimental data published in patent US9708314B2, “Heterocyclic amide compound” (NISSAN CHEMICAL INDUSTRIES, LTD., priority 2013, dated 2017).

Assays:
Type in all cases: in vivo
[1] = test system: Veronica persica; experiment: Test Example 4: herbicidal effect by application to foliage (diluvial soil, plastic box); details: 320 g/ha
Method in brief: (§1)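 Plants were grown in sterilized diluvial soil in a greenhouse at 25-30° C for 14 days, then sprayed on stems and leaves with water-diluted emulsion formulation at set rates in g/ha. Weed control and crop injury were scored 3 weeks after treatment on a 0-5 herbicidal-ratio scale, from 0 (≤5%) to 5 (≥90%).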

[2] = test system: Chenopodium album; experiment: as above; details: 320 g/ha
Method in brief: as §1

[3] = test system: Alopecurus myosuroides; experiment: as above; details: 320 g/ha
Method in brief: as §1

[4] = test system: Stellaria media; experiment: as above; details: 320 g/ha
Method in brief: as §1

[5] = test system: Amaranthus retroflexus; experiment: as above; details: 320 g/ha
Method in brief: as §1

[6] = test system: Setaria viridis; experiment: as above; details: 320 g/ha
Method in brief: as §1

[7] = test system: Apera spica-venti.; experiment: as above; details: 320 g/ha
Method in brief: as §1

[8] = test system: Avena fatua; experiment: as above; details: 320 g/ha
Method in brief: as §1

[9] = test system: Abutilon theophrasti; experiment: as above; details: 320 g/ha
Method in brief: as §1

[10] = test system: Digitaria ciliaris; experiment: as above; details: 320 g/ha
Method in brief: as §1

[11] = test system: Galium spurium; experiment: as above; details: 320 g/ha
Method in brief: as §1

[12] = test system: Lolium multiflorum Lam.; experiment: as above; details: 320 g/ha
Method in brief: as §1

[13] = test system: Echinochloa crus-galli var. crus-galli; experiment: as above; details: 320 g/ha
Method in brief: as §1

[14] = test system: Cyperus difformis; experiment: Test Example 3: herbicidal effect by application to foliage (Wagner pot, water depth 0.1-0.5 cm); details: Nineteenth Table; application to foliage; application herbicide amount 320 g/ha
Method in brief: (§2)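 Wagner pot foliar test: sow, grow 14 d (25–30 °C), spray diluted emulsion at set g/ha, score after 3 wk; 0 ≤5%, 5 ≥90% herbicidal ratio.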

[15] = test system: Leptochloa chinensis; experiment: as above; details: Nineteenth Table; application to foliage; application herbicide amount 320 g/ha
Method in brief: as §2

[16] = test system: Echinochloa crus-galli var. crus-galli; experiment: as above; details: Nineteenth Table; application to foliage; application herbicide amount 320 g/ha
Method in brief: as §2

[17] = test system: directly sowed Oryza sativa; experiment: Test Example 4: effect on crop by application to foliage (diluvial soil, plastic box); details: 320 g/ha
Method in brief: as §1

[18] = test system: Triticum aestivum; experiment: as above; details: 320 g/ha
Method in brief: as §1

[19] = test system: Beta vulgaris ssp. vulgaris; experiment: as above; details: 320 g/ha
Method in brief: as §1

[20] = test system: Zea mays; experiment: as above; details: 320 g/ha
Method in brief: as §1

[21] = test system: Brassica campestris L.; experiment: as above; details: 320 g/ha
Method in brief: as §1

[22] = test system: Glycine max; experiment: as above; details: 320 g/ha
Method in brief: as §1

[23] = test system: directly sowed Oryza sativa; experiment: Test Example 3: effect on crop by application to foliage (Wagner pot, water depth 0.1-0.5 cm); details: Nineteenth Table; application to foliage; application herbicide amount 320 g/ha
Method in brief: as §2

`Cn1nnnc1NC(=O)c1ccc(C(F)(F)F)n2c(CS(=O)(=O)CC(F)(F)F)nnc12` [2-036] was tested. Which “R (Veronica persica) herbicidal effect grade” value ([1]; foliage application) did it give?
Its value is 4 (Herbicidal ratio of 70% or more and less than 90%).

What about the “O (Chenopodium album) herbicidal effect grade” value ([2]; foliage application) of the same compound?
Its value is 5 (Herbicidal ratio of 90% or more (almost completely withered)).

And the “J (Alopecurus myosuroides) herbicidal effect grade” value ([3]; foliage application)?
The value was 0 (Herbicidal ratio of 5% or less (almost no effect)).

And the “P (Stellaria media) herbicidal effect grade” value ([4]; foliage application)?
Its value is 5 (Herbicidal ratio of 90% or more (almost completely withered)).

And the “N (Amaranthus retroflexus) herbicidal effect grade” value ([5]; foliage application)?
Its value is 5 (Herbicidal ratio of 90% or more (almost completely withered)).

What about the “G (Setaria viridis) herbicidal effect grade” value ([6]; foliage application) of the same compound?
Its value is 4 (Herbicidal ratio of 70% or more and less than 90%).

What about the “L (Apera spica-venti.) herbicidal effect grade” value ([7]; foliage application) of the same compound?
The value was 3 (Herbicidal ratio of 40% or more and less than 70%).

What about the “I (Avena fatua) herbicidal effect grade” value ([8]; foliage application) of the same compound?
Its value is 1 (Herbicidal ratio of 5% or more and less than 20%).

What about the “M (Abutilon theophrasti) herbicidal effect grade” value ([9]; foliage application) of the same compound?
The value was 5 (Herbicidal ratio of 90% or more (almost completely withered)).

What about the “F (Digitaria ciliaris) herbicidal effect grade” value ([10]; foliage application) of the same compound?
Its value is 5 (Herbicidal ratio of 90% or more (almost completely withered)).

What about the “Q (Galium spurium) herbicidal effect grade” value ([11]; foliage application) of the same compound?
Its value is 4 (Herbicidal ratio of 70% or more and less than 90%).

And the “K (Lolium multiflorum Lam.) herbicidal effect grade” value ([12]; foliage application)?
The value was 0 (Herbicidal ratio of 5% or less (almost no effect)).

What about the “H (Echinochloa crus-galli var. crus-galli) herbicidal effect grade” value ([13]; foliage application) of the same compound?
Its value is 5 (Herbicidal ratio of 90% or more (almost completely withered)).

What about the “E (herbicidal effect grade)” value [14] of the same compound?
Its value is 4 (Herbicidal ratio of 70% or more and less than 90%).

What about the “D (herbicidal effect grade)” value [15] of the same compound?
Its value is 5 (Herbicidal ratio of 90% or more (almost completely withered)).

And the “H (herbicidal effect grade)” value [16]?
The value was 4 (Herbicidal ratio of 70% or more and less than 90%).

What about the “d (directly sowed Oryza sativa) effect on crop grade” value ([17]; foliage application) of the same compound?
Its value is 2 (Herbicidal ratio of 20% or more and less than 40%).

And the “e (Triticum aestivum) effect on crop grade” value ([18]; foliage application)?
The value was 0 (Herbicidal ratio of 5% or less (almost no effect)).

And the “f (Beta vulgaris ssp. vulgaris) effect on crop grade” value ([19]; foliage application)?
Its value is 5 (Herbicidal ratio of 90% or more (almost completely withered)).

And the “b (Zea mays) effect on crop grade” value ([20]; foliage application)?
The value was 0 (Herbicidal ratio of 5% or less (almost no effect)).

What about the “g (Brassica campestris L.) effect on crop grade” value ([21]; foliage application) of the same compound?
Its value is 3 (Herbicidal ratio of 40% or more and less than 70%).

What about the “c (Glycine max) effect on crop grade” value ([22]; foliage application) of the same compound?
The value was 0 (Herbicidal ratio of 5% or less (almost no effect)).

And the “b (effect on crop grade)” value [23]?
Its value is 1 (Herbicidal ratio of 5% or more and less than 20%).

Which “herbicidal effect, R (Veronica persica)” value ([1]; application to foliage) does the source give for `CCn1ncnc1NC(=O)c1ccc(C(F)(F)F)n2c(C(C)C)nnc12` [4-002] here?
Its value is 1 (Herbicidal ratio of 5% or more and less than 20%).

What about the “herbicidal effect, O (Chenopodium album)” value ([2]; application to foliage) of the same compound?
Its value is 4 (Herbicidal ratio of 70% or more and less than 90%).

What about the “herbicidal effect, J (Alopecurus myosuroides)” value ([3]; application to foliage) of the same compound?
The value was 0 (Herbicidal ratio of 5% or less (almost no effect)).

What about the “herbicidal effect, P (Stellaria media)” value ([4]; application to foliage) of the same compound?
Its value is 3 (Herbicidal ratio of 40% or more and less than 70%).

What about the “herbicidal effect, N (Amaranthus retroflexus)” value ([5]; application to foliage) of the same compound?
The value was 4 (Herbicidal ratio of 70% or more and less than 90%).

And the “herbicidal effect, G (Setaria viridis)” value ([6]; application to foliage)?
Its value is 1 (Herbicidal ratio of 5% or more and less than 20%).

And the “herbicidal effect, L (Apera spica-venti.)” value ([7]; application to foliage)?
The value was 0 (Herbicidal ratio of 5% or less (almost no effect)).

What about the “herbicidal effect, I (Avena fatua)” value ([8]; application to foliage) of the same compound?
Its value is 1 (Herbicidal ratio of 5% or more and less than 20%).

And the “herbicidal effect, M (Abutilon theophrasti)” value ([9]; application to foliage)?
Its value is 5 (Herbicidal ratio of 90% or more (almost completely withered)).

What about the “herbicidal effect, F (Digitaria ciliaris)” value ([10]; application to foliage) of the same compound?
The value was 1 (Herbicidal ratio of 5% or more and less than 20%).

And the “herbicidal effect, Q (Galium spurium)” value ([11]; application to foliage)?
Its value is 1 (Herbicidal ratio of 5% or more and less than 20%).

And the “herbicidal effect, K (Lolium multiflorum Lam.)” value ([12]; application to foliage)?
Its value is 0 (Herbicidal ratio of 5% or less (almost no effect)).

And the “herbicidal effect, H (Echinochloa crus-galli var. crus-galli)” value ([13]; application to foliage)?
The value was 2 (Herbicidal ratio of 20% or more and less than 40%).

And the “E (herbicidal effect grade)” value [14]?
Its value is 0 (Herbicidal ratio of 5% or less (almost no effect)).

And the “D (herbicidal effect grade)” value [15]?
The value was 4 (Herbicidal ratio of 70% or more and less than 90%).

What about the “H (herbicidal effect grade)” value [16] of the same compound?
Its value is 0 (Herbicidal ratio of 5% or less (almost no effect)).

And the “effect on crop, d (directly sowed Oryza sativa)” value ([17]; application to foliage)?
The value was 1 (Herbicidal ratio of 5% or more and less than 20%).

And the “effect on crop, e (Triticum aestivum)” value ([18]; application to foliage)?
The value was 0 (Herbicidal ratio of 5% or less (almost no effect)).

What about the “effect on crop, f (Beta vulgaris ssp. vulgaris)” value ([19]; application to foliage) of the same compound?
The value was 0 (Herbicidal ratio of 5% or less (almost no effect)).

And the “effect on crop, b (Zea mays)” value ([20]; application to foliage)?
Its value is 0 (Herbicidal ratio of 5% or less (almost no effect)).

What about the “effect on crop, g (Brassica campestris L.)” value ([21]; application to foliage) of the same compound?
The value was 0 (Herbicidal ratio of 5% or less (almost no effect)).

What about the “effect on crop, c (Glycine max)” value ([22]; application to foliage) of the same compound?
Its value is 0 (Herbicidal ratio of 5% or less (almost no effect)).

And the “b (effect on crop grade)” value [23]?
The value was 0 (Herbicidal ratio of 5% or less (almost no effect)).
